Results from patent US7772192B2, “Compositions and methods for treatment of disease with acetylated disaccharides” (The Regents of the University of California, priority 2003, dated 2010).

Experiments:
[1] = system: cell-surface sLe^a of LS180 cells; experiment: Flow cytometry of cell-surface sLe^a (CA19-9); format: cell-based, human; conditions: 50 μM
Procedure: Peracetylated forms of GlcNAcβ1,3Galβ-O-naphthalenemethanol (AcGnG-NM) and Galβ1,3Galβ-O-naphthalenemethanol (AcGG-NM) were prepared as described. Sarkar, et al., Carbohydr. Res., 329, 287-300, 2000. The compounds were dissolved in dimethylsulfoxide (DMSO) and added to growth medium to achieve the concentrations indicated in the figures. The supplemented medium was then exchanged for the medium in established cultures of cells in order to avoid lysis caused by adding concentrated DMSO directly to the plates. The final concentration of DMSO was adjusted to ≦0.5% (v/v). After the specified number of days, the cells were harvested with 2 mM EDTA in PBS (20 min) and used for the following experiments.
Cell Sorting. To detect the presence or absence of the relevant carbohydrate determinants, cells were stained with CSLEX-1 (anti-sLe^X, 5 μg/mL, Becton-Dickinson) or CA-19-9 ([…], 14.5 μg/mL, Chemicon) and analyzed by flow cytometry (FACScan Becton-Dickinson, Franklin Lakes, N.J.). […]
Treatment of LS180 cells with AcGnG-NM reduces cell-surface sLe^X, but not sLe^a. […] LS180 cells were grown in the presence of 50 μM AcGnG-NM, harvested with EDTA, stained with monoclonal antibodies (CSLEX-1, anti-sLe^X and CA19-9, anti-sLe^a) as indicated and analyzed by flow cytometry (Materials and Methods). […]

LS180 cells = experiment: Metastatic lung tumor formation in SCID mice (LS180); format: in vivo
Procedure: Tumor formation. LS180 cells were grown in the presence or absence of 50 μM AcGnG-NM for 6 days, harvested with EDTA, and resuspended in sterile PBS. Approximately 3×10^5 tumor cells in 150 μl PBS were injected into the lateral tail vein of anesthetized 7 week-old immunodeficient mice (Fox Chase SCID; Charles River). The mice were then maintained in microbe-free housing with free access to standard laboratory chow and water, and inspected regularly for any signs of distress. After 4 weeks, mice were euthanized by CO2 asphyxiation under anesthesia, and lungs, livers, brains, kidneys/adrenals, and spleens were fixed in Bouin's solution (Sigma) for 6 hr followed by transfer to 70% ethanol. Lungs for each animal were inspected under a dissecting microscope for the total number of surface tumors. Histologic sections (hematoxylin/eosin) were examined for tumor foci, and representative photomicrographs were taken. The other organs were also reviewed histologically for any tumor foci.
Impairment of metastatic tumor formation. Prior studies have shown that deletion of P-selectin in mice alters the tumorigenicity of hematogenously distributed LS180 cells. Kim et al., Proc. Natl. Acad. Sci. USA, 95: 9325-9330, 1998. […] After 4 weeks, the animals were sacrificed and formation of lung tumor foci was assessed at necropsy by counting nodules on the lung surface and in histologic sections.

mixed oligosaccharides = experiment: Oligosaccharide priming, [6-3H]Gal incorporation; format: cell-based
Description: A 4-deoxy modified acetylated disaccharide inhibits sLe^X expression in the absence of oligosaccharide priming.

[2] = system: LS180 cells adhering to recombinant E-selectin; experiment: Cell adhesion to immobilized E-selectin; format: cell-based, human; conditions: LS180 cells grown 5 days with disaccharide
Procedure: Cell adhesion to immobilized selectins. 96-well plates were coated overnight at 4° C. with recombinant E-selectin (4 μg/ml) or P-selectin (2 μg/ml) (R & D Systems) and blocked with 1% BSA/PBS. LS180 cells were grown for 5 days with various amounts of acetylated disaccharide, harvested, labeled with Calcein AM (5 μM, Molecular Probes) in DMEM/1% FBS, and allowed to settle at room temperature on selectin-coated wells (5×10^4 cells/well). Plates were then stirred at 75 rpm for 30 min (Orbit shaker, Lab-Line Instruments) followed by immersion upside-down in a vessel filled with Hank's buffered saline solution (HBSS, Sigma), which allowed non-adherent cells to fall under gravity. St John et al., J. Immunol Methods, 170: 159-166, 1994. The wells were then washed by aspiration using HBSS. LS180 cells were less adherent to P-selectin, so the immersion step was not necessary prior to washing. […] Fluorescence was measured using a 96-well fluorimeter (CytoFluor II), and the average of triplicate measurements was determined±standard error. Cell viability was judged to be >90% by Trypan blue exclusion at the end of each experiment.
Adhesion to selectins is altered in disaccharide-treated tumor cells. Treatment of LS180 cells with AcGnG-NM was not toxic to the cells up to 100 μM based on growth curves and exclusion of Trypan blue. […]

Substance: GlcNAcβ1,3Galβ-O-naphthalenemethanol [AcGnG-NM]
- cell-surface sLe^a [1]: no effect
- lung tumor foci (LS180 cells; cells pretreated with 50 μM for 6 days, 4 weeks, n=8, p<0.0002): less numerous
- tumor size (LS180 cells; treated versus untreated cells): approximately the same
- incorporation of [6-^3H]Gal into mixed oligosaccharides (mixed oligosaccharides): stimulates
- adhesion to recombinant E-selectin [2]: reduced the ability of LS180 cells to adhere
